This note sets out measurements from patent US8815882B2, “Pyrazole aminopyrimidine derivatives as LRRK2 modulators” (Genentech, Inc., priority 2010, dated 2014).

Each structure is given as a SMILES string.

In the first assay the target is T1, LRRK2 (Homo sapiens, UniProt Q5S007, G2019S).
T1 construct: purchased Invitrogen PV4882 (lot 567054A)
T1 sequence (Q5S007 whole entry G2019S): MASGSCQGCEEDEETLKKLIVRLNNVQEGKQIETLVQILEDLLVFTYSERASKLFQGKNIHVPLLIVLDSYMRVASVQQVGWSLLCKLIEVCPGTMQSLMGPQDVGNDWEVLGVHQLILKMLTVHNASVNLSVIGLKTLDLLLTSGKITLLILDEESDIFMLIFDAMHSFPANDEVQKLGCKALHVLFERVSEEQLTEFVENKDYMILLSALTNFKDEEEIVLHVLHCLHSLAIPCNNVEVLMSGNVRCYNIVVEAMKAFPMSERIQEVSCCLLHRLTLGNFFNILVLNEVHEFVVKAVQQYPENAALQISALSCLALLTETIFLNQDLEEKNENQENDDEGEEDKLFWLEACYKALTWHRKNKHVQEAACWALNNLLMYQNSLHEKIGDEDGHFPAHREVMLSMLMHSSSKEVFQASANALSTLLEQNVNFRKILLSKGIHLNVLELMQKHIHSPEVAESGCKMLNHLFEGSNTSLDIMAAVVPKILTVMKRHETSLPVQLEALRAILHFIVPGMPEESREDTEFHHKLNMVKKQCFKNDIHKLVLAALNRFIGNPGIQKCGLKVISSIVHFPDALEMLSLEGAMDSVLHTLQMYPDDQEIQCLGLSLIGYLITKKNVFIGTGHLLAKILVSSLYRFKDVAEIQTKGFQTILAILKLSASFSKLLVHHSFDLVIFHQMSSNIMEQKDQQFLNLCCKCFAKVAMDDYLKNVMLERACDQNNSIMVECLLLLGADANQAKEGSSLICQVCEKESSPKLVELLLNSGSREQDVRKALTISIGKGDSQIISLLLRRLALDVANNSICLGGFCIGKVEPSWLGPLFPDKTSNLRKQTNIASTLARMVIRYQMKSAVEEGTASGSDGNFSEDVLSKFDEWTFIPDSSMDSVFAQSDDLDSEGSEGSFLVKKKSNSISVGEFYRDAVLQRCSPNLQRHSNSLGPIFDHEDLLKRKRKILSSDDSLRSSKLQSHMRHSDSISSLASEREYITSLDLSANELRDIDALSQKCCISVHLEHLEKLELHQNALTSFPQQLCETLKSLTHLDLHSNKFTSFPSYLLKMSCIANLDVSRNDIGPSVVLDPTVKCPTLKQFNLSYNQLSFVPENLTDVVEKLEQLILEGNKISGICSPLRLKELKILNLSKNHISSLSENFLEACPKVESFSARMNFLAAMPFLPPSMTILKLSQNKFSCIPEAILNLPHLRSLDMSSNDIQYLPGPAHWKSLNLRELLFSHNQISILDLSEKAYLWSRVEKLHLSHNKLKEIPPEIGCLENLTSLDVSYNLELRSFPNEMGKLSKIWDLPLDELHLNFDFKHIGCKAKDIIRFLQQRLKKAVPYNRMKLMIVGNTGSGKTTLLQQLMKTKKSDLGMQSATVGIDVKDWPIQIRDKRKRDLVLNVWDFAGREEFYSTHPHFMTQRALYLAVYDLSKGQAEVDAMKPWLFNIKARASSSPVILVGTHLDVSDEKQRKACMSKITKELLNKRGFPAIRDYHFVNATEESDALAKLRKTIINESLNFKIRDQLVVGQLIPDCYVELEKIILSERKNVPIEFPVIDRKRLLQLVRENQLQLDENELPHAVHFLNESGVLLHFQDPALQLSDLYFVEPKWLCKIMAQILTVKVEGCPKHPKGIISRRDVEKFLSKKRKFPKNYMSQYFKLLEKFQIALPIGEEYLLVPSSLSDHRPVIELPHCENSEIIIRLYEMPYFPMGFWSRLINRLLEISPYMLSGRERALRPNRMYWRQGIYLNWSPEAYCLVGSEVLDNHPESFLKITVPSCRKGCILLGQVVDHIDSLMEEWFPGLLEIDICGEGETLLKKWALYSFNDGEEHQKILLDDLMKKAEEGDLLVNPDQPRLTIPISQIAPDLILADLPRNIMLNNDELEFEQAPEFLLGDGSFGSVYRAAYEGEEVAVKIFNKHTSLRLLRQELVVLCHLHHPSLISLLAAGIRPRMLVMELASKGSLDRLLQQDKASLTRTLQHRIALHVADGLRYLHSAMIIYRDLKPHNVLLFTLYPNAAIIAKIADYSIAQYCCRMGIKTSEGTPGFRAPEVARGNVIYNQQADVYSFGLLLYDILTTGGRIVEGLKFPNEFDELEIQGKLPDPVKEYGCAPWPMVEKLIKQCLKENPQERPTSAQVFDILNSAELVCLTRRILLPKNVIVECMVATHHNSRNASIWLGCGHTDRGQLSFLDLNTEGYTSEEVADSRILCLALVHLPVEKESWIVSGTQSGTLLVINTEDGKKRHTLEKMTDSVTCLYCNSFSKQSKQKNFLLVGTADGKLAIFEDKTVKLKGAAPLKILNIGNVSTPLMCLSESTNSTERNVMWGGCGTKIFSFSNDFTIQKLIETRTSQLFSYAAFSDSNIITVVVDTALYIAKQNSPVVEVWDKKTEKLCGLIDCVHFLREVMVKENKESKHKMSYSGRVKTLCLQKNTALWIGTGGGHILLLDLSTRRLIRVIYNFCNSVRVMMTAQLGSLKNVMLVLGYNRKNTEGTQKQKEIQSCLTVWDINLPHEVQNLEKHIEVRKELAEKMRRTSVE
Nature of the assay: In Vitro LRRK2 Assay (LabChip 3000, fluorescently-labeled peptide substrate, ATP). The conditions noted are these: Table 9; LRRK2 Ki (micromolar); read-out: LRRK2 Ki (KI). The format is biochemical. How it is done: This assay was used to determine a compound's potency in inhibiting activity of LRRK2 by determining, Kiapp, IC50, or percent inhibition values. In a polypropylene plate, LRRK2, fluorescently-labeled peptide substrate, ATP and test compound were incubated together. Using a LabChip 3000 (Caliper Life Sciences), after the reaction the substrate was separated by capillary electrophoresis into two populations: phosphorylated and unphosphorylated. The relative amounts of each were quantitated by fluorescence intensity. LRRK2 Ki was determined according to the equation: Y=V0*(1−(x+Ki*(1+S/Km)+Et)/(2*Et)−(((x+Ki*(1+S/Km)+Et)^2−(4*Et*x))^0.5)/(2*Et))). Ki values in Table 4 and elsewhere herein are shown in μM.
Assay conditions and materials used were as follows:
Compound Plate Preparation:
For serial dilutions, 34.6 μl DMSO was added to columns 3-24.
Total and Blank Preparation:
In Complete Reaction Buffer, substrate was diluted to 4 μM. Equal volumes of Complete Reaction Buffer and 4 μM substrate were combined to obtain the blank. Equal volumes of Complete Reaction Buffer and 4 μM substrate were combined and to the combined solution was added 2× final LRRK2 concentration.
To a 50 μl polypropylene plate, 5 μl/well buffer/substrate was added by hand to Blank wells. A Biomek FX was used to start the kinase reaction (“PLK SAR 23 ATP”). The following were added to the appropriate wells:
5 μl/well compound/ATP in Assay Plate;
5 μl/well kinase/substrate in Assay Plate;
The plate was incubated for 2 hours in the dark. Biomek FX was used to stop the kinase reaction (“PLK Stop”), and 10 μl/well Stop solution was added to the Assay Plate. Results were read on the LabChip 3000.
The LabChip 3000 was run using the job “LRRK2 IC50” with the following job settings: […]
As to `CCCn1ncc(Nc2ncc(C#N)c(NC)n2)c1C` [Example 366, 2-(5-methyl-1-propyl-1H-pyrazol-4-ylamino)-4-(methylamino) pyrimidine-5-carbonitrile], the Ki stood at 5.4 nM.
Turning to `COc1nc(Nc2cnn(C)c2C)ncc1C#N` [Example 375, 2-(1,5-dimethyl-1H-pyrazol-4-ylamino)-4-methoxy-pyrimidine-5-carbonitrile], the inhibitory constant (Ki) was 145 nM.
On the same count and under the same terms, for `CNc1nc(Nc2cn(-c3ccccc3)nc2C)ncc1C#N` [Example 354, 2-(3-methyl-1-phenyl-1H-pyrazol-4-ylamino)-4-(methylamino) pyrimidine-5-carbonitrile] the value was 120 nM.

Staying with this assay, now noted: Table 10; LRRK2 Ki (micromolar); read-out: LRRK2 Ki (KI).
For `CNc1nc(Nc2cn(C3(C#N)CC3)nc2C)ncc1C(F)(F)F` [Example 402, 1-(3-methyl-4-(4-(methylamino)-5-(trifluoromethyl)pyrimidin-2-ylamino)-1H-pyrazol-1-yl)cyclopropane-carbonitrile], the Ki was determined as 3.7 nM.

Staying with this assay, now noted: read-out: LRRK2 Ki (KI), Table 7.
Turning to `Cc1c(Nc2ncc(Cl)c(OC3CCOCC3)n2)cnn1C` [Example 9, 5-Chloro-N-(1,5-dimethyl-1H-pyrazol-4-yl)-4-(tetrahydro-2H-pyran-4-yloxy)pyrimidin-2-amine], the Ki was 39 nM.
Take `COc1nc(Nc2cn(-c3ccccc3)nc2C)ncc1Cl` [Example 76, (5-Chloro-4-methoxy-pyrimidin-2-yl)-(3-methyl-1-phenyl-1H-pyrazol-4-yl)-amine]: the Ki was determined as 2.3 nM.
On the same count and under the same terms, for `CNc1nc(Nc2ccnn2C)ncc1F` [Example 35, 5-Fluoro-N^4-methyl-N^2-(2-methyl-2H-pyrazol-3-yl)-pyrimidine-2,4-diamine] the value was 267 nM; for `COc1nc(Nc2cnn(-c3ccccc3)c2C)ncc1Cl` [Example 56, 5-chloro-4-methoxy-N-(5-methyl-1-phenyl-1H-pyrazol-4-yl)pyrimidin-2-amine], 27 nM.

Staying with this assay, now noted: read-out: LRRK2 Ki (KI), Table 8.
As to `CNc1nc(Nc2cnn(C3CCN(C4COC4)CC3F)c2Cl)ncc1C(F)(F)F` (stereo not drawn) [Example 305, N2-[5-Chloro-1-(3-fluoro-1-oxetan-3-yl-piperidin-4-yl)-1H-pyrazol-4-yl]-N4-methyl-5-trifluoromethyl-pyrimidine-2,4-diamine], the Ki amounted to 2.2 nM.
Same read-out and setting: for `CCNc1nc(Nc2cn(C(C)(C)CN3CCOCC3)nc2C)ncc1C(F)(F)F` [Example 298, N2-[1-(1,1-Dimethyl-2-morpholin-4-yl-ethyl)-3-methyl-1H-pyrazol-4-yl]-N4-ethyl-5-trifluoromethyl-pyrimidine-2,4-diamine] the value was 50.6 nM.
Still for that read-out and setting: for `CNc1nc(Nc2cnn(CC(C)(C)O)c2C(F)(F)F)ncc1C(F)(F)F` [Example 197, 2-methyl-1-(4-(4-(methylamino)-5-(trifluoromethyl)pyrimidin-2-ylamino)-5-(trifluoromethyl)-1H-pyrazol-1-yl)propan-2-ol] the value was 26 nM; for `CCNc1nc(Nc2cnn(CCOC)c2C)ncc1C(F)(F)F` [Example 295, N4-Ethyl-N2-[1-(2-methoxy-ethyl)-5-methyl-1H-pyrazol-4-yl]-5-trifluoromethyl-pyrimidine-2,4-diamine], 0.4 nM.
Take `CCNc1nc(Nc2cn(C3CCN(C(C)=O)CC3)nc2C)ncc1C(F)(F)F` [Example 134, 1-(4-(4-(4-(ethylamino)-5-(trifluoromethyl)pyrimidin-2-ylamino)-3-methyl-1H-pyrazol-1-yl)piperidin-1-yl)ethanone]: the Ki amounted to 2.2 nM.
On the same count and under the same terms, with `CNc1nc(Nc2cn(CC(C)(C)O)nc2C)ncc1C(F)(F)F` [Example 250, 2-Methyl-1-[3-methyl-4-(4-methylamino-5-trifluoromethyl-pyrimidin-2-ylamino)-pyrazol-1-yl]-propan-2-ol] the figure was 12.2 nM.
On the same count and under the same terms, for `CCNc1nc(Nc2cnn(-c3ccc(S(=O)(=O)C4CC4)cc3)c2C)ncc1C(F)(F)F` [Example 174, N2-(1-(4-(cyclopropyl-sulfonyl)phenyl)-5-methyl-1H-pyrazol-4-yl)-N4-ethyl-5-(trifluoromethyl) pyrimidine-2,4-diamine] the value was 1.1 nM.
Turning to `CCNc1nc(Nc2cnn(-c3ccc(C(=O)N(C)C)cc3)c2C)ncc1C(F)(F)F` [Example 157, 4-(4-(4-(ethylamino)-5-(trifluoromethyl)pyrimidin-2-ylamino)-5-methyl-1H-pyrazol-1-yl)-N,N-dimethylbenzamide], the inhibitory constant (Ki) came out at 0.3 nM.
Consider `CNc1nc(Nc2cn(C(C)(C)c3ccn(C)n3)nc2C)ncc1C(F)(F)F` [Example 345, N4-methyl-N2-(3-methyl-1-(2-(1-methyl-1H-pyrazol-3-yl)propan-2-yl)-1H-pyrazol-4-yl)-5-(trifluoromethyl) pyrimidine-2,4-diamine], for which the inhibitory constant (Ki) is 115 nM.
For `COc1nc(Nc2cnn(C3CCN(CCF)CC3)c2C)ncc1Cl` [Example 292, (5-Chloro-4-methoxy-pyrimidin-2-yl)-{1-[1-(2-fluoro-ethyl)-piperidin-4-yl]-5-methyl-1H-pyrazol-4-yl}-amine], the Ki was 4.2 nM.
On the same count and under the same terms, with `CNc1nc(Nc2cn(Cc3cccc(C)n3)nc2C)ncc1C(F)(F)F` [Example 293, N4-Methyl-N2-[3-methyl-1-(6-methyl-pyridin-2-ylmethyl)-1H-pyrazol-4-yl]-5-trifluoromethyl-pyrimidine-2,4-diamine] the figure was 0.6 nM; with `CCNc1nc(Nc2cn(C3CCC(=O)N(C)C3)nc2C)ncc1C(F)(F)F` (stereo not drawn) [Example 152, 5-(4-(4-(ethylamino)-5-(trifluoromethyl)pyrimidin-2-ylamino)-3-methyl-1H-pyrazol-1-yl)-1-methylpiperidin-2-one], 7.3 nM.
Same read-out and setting: with `CNc1nc(Nc2cnn(C)c2C#N)ncc1C(F)(F)F` [Example 215, 1-methyl-4-(4-(methylamino)-5-(trifluoromethyl)pyrimidin-2-ylamino)-1H-pyrazole-5-carbonitrile] the figure was 3.2 nM; with `CNc1nc(Nc2cnn(C)c2CF)ncc1C(F)(F)F` [Example 330, N2-(5-Fluoromethyl-1-methyl-1H-pyrazol-4-yl)-N4-methyl-5-trifluoromethyl-pyrimidine-2,4-diamine], 24.5 nM; with `CCNc1nc(Nc2cn(C(C)(C)C(=O)NC)nc2C)ncc1C(F)(F)F` [Example 303, 2-[4-(4-Ethylamino-5-trifluoromethyl-pyrimidin-2-ylamino)-3-methyl-pyrazol-1-yl]-N-methyl-isobutyramide], 1.3 nM.
Take `CNC(=O)C(C)(C)n1ncc(Nc2ncc(C(F)(F)F)c(NC)n2)c1Cl` [Example 237, 2-(5-chloro-4-(4-(methylamino)-5-(trifluoromethyl)pyrimidin-2-ylamino)-1H-pyrazol-1-yl)-N,2-dimethylpropan-amide]: the Ki was 45 nM.
As to `CNc1nc(Nc2cn(CCF)nc2C)ncc1C(F)(F)F` [Example 130, N2-(1-(2-fluoroethyl)-3-methyl-1H-pyrazol-4-yl)-N4-methyl-5-(trifluoromethyl) pyrimidine-2,4-diamine], the Ki is 1.1 nM.
The same measure, in the same setting: with `CCNc1nc(Nc2cn(C3COC3)nc2C)ncc1Br` [Example 104, 5-bromo-N4-ethyl-N2-(3-methyl-1-(oxetan-3-yl)-1H-pyrazol-4-yl)pyrimidine-2,4-diamine] the figure was 1.4 nM; with `CCNc1nc(Nc2cnn([C@H]3CCCN(C4COC4)C3)c2C)ncc1C(F)(F)F` [Example 307, N4-Ethyl-N2-[5-methyl-1-((S)-1-oxetan-3-yl-piperidin-3-yl)-1H-pyrazol-4-yl]-5-trifluoromethyl-pyrimidine-2,4-diamine], 0.3 nM.
